In patent US8822517B2, “Arylosulfonamides for the treatment of CNS diseases” (Adamed SP. Z O.O., priority 2010, dated 2014):

Experiments:
dopaminergic D3 receptor = dopaminergic D3 receptor (Homo sapiens, UniProt P35462); assay: Cellular functional assay, dopaminergic D3 receptor (agonism/antagonism); format: cell-based
Method: (§1) The compounds were tested at the concentration of 1×10^−6M.
(§2) In the Tables ag refers to agonism, and antag to antagonism).

adrenergic α1A receptor = biological target: T1, adrenergic α1A receptor (Homo sapiens, UniProt P35348); assay: Cellular functional assay, adrenergic α1A receptor (agonism/antagonism); format: cell-based
T1 sequence (P35348 1-466): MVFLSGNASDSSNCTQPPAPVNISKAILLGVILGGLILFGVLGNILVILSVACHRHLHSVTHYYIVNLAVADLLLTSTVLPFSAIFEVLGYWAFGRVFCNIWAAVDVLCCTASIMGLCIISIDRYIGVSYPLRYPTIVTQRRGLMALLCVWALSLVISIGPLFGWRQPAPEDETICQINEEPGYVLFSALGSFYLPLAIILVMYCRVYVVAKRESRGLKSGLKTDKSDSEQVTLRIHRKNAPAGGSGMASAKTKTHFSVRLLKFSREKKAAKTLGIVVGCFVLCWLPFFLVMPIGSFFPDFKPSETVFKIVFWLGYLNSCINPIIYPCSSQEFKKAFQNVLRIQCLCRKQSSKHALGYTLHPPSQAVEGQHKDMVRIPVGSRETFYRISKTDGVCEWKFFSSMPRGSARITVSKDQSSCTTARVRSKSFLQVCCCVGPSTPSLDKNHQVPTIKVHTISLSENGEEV
Outline: (§3)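 Human receptors tested in cell-based functional format for both agonist and antagonist modes. Single compound concentration of 1×10^−6M.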

[1] = biological target: T2, serotoninergic 5-HT7 receptor (Homo sapiens, UniProt P34969); assay: Binding assay 5-HT7 (h), [3H]LSD, CHO cells; set-up: expressed in transfected cells; host or cells: CHO cells; settings: read-out: 5-HT7
Outline: (§4)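 Specific ligand binding was taken as total minus non-specific binding, with the latter defined in the presence of surplus unlabelled ligand. Each compound was tested at a single 1×10^−6 M concentration.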

[2] = biological target: T3, serotoninergic 5-HT2A receptor (Homo sapiens, UniProt P28223); assay: Binding assay 5-HT2A (h), [3H]ketanserin, HEK-293 cells; set-up: expressed in transfected cells; host or cells: HEK-293 cells; settings: read-out: 5-HT2A
Outline: as §4

[3] = biological target: T4, serotonine transporter (SERT) receptor (Homo sapiens, UniProt P31645); assay: Binding assay SERT (h), [3H]imipramine, CHO cells; settings: read-out: SERT [%]
T4 construct: expressed in transfected cells; host or cells: CHO cells
Outline: as §4

muscarinic M3 receptor = biological target: T5, muscarinic M3 receptor (Homo sapiens, UniProt P20309); assay: Binding assay M3 (h), [3H]4-DAMP, CHO cells; settings: read-out: M3 [%]
T5 construct: expressed in transfected cells; host or cells: CHO cells
Outline: as §4

[4] = biological target: T2, serotoninergic 5-HT7 receptor; assay: Cellular functional assay, serotoninergic 5-HT7 receptor (agonism/antagonism); format: cell-based
Method: as §1, §2

sigma σ receptor = assay: Binding assay σ (non-selective), [3H]DTG, rat cerebral cortex; settings: percent inhibition of control specific binding; compounds tested at 1×10^−6 M
Outline: as §4

[5] = biological target: T3, serotoninergic 5-HT2A receptor; assay: Cellular functional assay, serotoninergic 5-HT2A receptor (agonism/antagonism); format: cell-based
Outline: as §3

dopaminergic D2 receptor [6] = biological target: T6, dopaminergic D2 receptor (Homo sapiens, UniProt P14416); assay: Cellular functional assay, dopaminergic D2 receptor (agonism/antagonism); format: cell-based; settings: HEK293
Method: as §1, §2
Target sequence in this assay (P14416 whole entry): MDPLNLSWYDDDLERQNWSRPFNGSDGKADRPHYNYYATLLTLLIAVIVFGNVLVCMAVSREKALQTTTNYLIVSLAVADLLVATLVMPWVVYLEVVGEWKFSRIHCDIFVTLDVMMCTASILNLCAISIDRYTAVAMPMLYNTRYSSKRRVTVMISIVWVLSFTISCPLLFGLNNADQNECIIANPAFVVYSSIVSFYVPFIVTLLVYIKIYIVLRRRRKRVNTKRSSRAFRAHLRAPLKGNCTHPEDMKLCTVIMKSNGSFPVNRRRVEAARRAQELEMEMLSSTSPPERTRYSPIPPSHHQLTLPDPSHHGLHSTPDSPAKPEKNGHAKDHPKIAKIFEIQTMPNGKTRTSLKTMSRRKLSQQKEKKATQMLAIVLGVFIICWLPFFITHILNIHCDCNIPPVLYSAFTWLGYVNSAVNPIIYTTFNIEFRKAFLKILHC

dopaminergic D2 receptor [7] = biological target: T6, dopaminergic D2 receptor; assay: Binding assay D2S (h), [3H]methyl-spiperone, HEK-293 cells; set-up: expressed in transfected cells; host or cells: HEK-293 cells; settings: read-out: D2 [%]
Outline: as §4
Target sequence in this assay (P14416 1-414 isoform P14416-2): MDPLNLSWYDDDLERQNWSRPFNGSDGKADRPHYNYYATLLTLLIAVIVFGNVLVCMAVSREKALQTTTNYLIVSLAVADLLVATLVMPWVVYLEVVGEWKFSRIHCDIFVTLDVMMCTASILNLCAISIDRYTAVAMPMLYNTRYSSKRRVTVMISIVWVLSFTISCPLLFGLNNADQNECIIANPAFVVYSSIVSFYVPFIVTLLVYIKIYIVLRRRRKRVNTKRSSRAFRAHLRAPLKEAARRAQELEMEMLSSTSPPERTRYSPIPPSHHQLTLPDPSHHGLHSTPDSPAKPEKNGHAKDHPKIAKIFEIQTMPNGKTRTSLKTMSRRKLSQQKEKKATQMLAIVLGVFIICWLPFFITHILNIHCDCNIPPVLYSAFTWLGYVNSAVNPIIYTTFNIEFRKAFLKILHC

[8] = biological target: histaminergic H1 receptor (Homo sapiens, UniProt P35367); assay: Binding assay H1 (h), [3H]pyrilamine, HEK-293 cells; set-up: expressed in transfected cells; host or cells: HEK-293 cells; settings: read-out: H1 [%]
Outline: as §4

adrenergic α1 receptor = assay: Binding assay α1 (non-selective), [3H]prazosin, rat cerebral cortex; settings: percent inhibition of control specific binding; compounds tested at 1×10^−6 M
Outline: as §4

adrenergic α2C receptor = biological target: T7, adrenergic α2C receptor (Homo sapiens, UniProt P18825); assay: Binding assay α2C (h), [3H]RX 821002, CHO cells; set-up: expressed in transfected cells; host or cells: CHO cells; settings: read-out: α2C [%]
T7 sequence (P18825 1-462): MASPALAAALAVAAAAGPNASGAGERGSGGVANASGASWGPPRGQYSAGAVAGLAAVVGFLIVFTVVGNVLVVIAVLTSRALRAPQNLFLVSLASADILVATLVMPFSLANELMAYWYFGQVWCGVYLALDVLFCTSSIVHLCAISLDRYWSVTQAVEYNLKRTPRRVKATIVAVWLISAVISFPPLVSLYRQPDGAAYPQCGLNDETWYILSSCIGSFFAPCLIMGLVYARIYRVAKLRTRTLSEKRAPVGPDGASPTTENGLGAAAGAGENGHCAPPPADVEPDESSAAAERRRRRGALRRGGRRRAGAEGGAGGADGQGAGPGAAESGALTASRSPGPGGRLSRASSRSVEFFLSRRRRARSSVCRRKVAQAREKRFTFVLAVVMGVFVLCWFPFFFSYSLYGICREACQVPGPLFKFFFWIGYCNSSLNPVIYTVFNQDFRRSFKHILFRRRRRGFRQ
Outline: as §4

T2 sequence (P34969 whole entry): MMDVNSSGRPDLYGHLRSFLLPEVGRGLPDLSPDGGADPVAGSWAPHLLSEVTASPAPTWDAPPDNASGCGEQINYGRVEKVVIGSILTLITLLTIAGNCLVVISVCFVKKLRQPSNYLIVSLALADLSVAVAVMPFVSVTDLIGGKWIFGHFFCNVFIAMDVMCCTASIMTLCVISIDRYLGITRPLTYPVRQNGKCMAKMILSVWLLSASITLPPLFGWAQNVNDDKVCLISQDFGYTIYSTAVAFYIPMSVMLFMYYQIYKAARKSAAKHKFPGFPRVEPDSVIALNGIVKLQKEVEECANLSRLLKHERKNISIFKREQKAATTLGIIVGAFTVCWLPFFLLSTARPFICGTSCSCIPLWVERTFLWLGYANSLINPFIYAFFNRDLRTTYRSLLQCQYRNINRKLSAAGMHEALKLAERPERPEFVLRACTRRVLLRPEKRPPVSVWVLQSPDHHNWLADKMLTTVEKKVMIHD
T3 sequence (P28223 whole entry): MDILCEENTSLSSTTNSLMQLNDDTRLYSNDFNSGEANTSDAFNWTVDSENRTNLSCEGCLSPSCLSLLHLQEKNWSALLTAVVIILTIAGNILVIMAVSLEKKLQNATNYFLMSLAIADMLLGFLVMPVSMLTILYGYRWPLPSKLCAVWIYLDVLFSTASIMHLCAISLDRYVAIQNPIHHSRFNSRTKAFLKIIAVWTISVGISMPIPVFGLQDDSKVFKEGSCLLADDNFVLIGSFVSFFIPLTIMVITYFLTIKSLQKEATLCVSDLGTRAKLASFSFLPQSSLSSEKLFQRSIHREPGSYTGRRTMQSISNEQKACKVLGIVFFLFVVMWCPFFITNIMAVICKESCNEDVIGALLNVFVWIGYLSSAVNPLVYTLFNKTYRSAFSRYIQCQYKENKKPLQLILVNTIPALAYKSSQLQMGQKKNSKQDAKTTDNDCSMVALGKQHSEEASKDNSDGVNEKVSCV
Chain of dopaminergic D3 receptor (P35462 whole entry): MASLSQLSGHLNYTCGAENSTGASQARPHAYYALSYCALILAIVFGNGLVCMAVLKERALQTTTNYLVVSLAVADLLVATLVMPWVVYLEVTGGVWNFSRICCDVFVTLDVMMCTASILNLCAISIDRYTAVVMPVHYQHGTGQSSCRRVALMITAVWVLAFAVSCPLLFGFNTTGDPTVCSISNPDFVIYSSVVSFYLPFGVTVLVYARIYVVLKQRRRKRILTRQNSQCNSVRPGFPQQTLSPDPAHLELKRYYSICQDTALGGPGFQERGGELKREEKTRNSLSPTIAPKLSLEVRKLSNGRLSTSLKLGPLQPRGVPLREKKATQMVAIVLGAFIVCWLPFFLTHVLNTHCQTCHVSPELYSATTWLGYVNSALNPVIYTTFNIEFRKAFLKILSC
T4 sequence (P31645 whole entry): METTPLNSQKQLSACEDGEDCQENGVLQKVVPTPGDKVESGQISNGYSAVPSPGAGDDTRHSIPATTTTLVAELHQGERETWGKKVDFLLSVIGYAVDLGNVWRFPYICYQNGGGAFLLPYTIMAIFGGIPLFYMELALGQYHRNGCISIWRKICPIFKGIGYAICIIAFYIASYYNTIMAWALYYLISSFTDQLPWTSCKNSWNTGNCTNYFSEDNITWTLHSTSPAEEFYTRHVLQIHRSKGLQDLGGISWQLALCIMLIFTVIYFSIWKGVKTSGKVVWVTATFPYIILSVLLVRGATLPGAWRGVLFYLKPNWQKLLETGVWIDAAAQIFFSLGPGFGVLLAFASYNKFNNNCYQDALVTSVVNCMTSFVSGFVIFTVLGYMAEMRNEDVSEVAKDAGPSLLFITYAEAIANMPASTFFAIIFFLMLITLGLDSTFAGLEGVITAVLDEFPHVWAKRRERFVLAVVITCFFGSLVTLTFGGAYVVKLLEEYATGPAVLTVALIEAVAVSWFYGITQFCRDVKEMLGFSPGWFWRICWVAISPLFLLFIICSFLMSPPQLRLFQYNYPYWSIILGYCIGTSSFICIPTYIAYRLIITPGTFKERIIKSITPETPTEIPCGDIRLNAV
Chain of histaminergic H1 receptor (P35367 whole entry): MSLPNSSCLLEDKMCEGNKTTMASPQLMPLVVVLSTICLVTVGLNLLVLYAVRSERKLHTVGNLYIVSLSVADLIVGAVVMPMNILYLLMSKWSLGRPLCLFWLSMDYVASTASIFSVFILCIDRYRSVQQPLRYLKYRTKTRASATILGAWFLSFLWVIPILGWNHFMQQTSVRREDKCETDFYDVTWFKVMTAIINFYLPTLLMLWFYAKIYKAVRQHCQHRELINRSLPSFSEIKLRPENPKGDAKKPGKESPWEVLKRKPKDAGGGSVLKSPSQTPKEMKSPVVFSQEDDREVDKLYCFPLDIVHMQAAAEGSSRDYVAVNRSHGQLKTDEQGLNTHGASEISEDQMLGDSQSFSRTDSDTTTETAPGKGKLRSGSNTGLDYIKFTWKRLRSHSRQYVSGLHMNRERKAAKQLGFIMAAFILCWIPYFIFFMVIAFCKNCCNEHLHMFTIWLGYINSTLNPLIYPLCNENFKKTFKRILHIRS
T5 sequence (P20309 whole entry): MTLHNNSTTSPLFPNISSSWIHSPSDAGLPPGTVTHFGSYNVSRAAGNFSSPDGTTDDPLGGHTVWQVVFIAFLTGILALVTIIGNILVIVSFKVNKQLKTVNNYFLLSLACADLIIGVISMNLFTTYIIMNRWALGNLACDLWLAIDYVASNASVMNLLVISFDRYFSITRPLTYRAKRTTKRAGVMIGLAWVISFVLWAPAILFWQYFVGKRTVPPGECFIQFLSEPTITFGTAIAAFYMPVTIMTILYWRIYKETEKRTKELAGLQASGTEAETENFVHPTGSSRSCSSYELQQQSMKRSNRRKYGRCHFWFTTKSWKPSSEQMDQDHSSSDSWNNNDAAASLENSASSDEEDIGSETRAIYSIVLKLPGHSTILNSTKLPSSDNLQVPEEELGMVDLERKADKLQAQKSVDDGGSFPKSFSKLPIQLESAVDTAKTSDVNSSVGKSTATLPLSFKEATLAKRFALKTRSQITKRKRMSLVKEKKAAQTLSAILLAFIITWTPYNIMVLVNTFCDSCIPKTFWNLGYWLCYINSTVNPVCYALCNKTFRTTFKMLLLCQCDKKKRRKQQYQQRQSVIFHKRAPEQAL

**Q.** How did the inhibition at 1 µM (dopaminergic D3 receptor; CHO, read-out: D3-antag. [%]) turn out when `O=S(=O)(NCCCCN1CCN(c2cccc3[nH]ccc23)CC1)c1cc2ccc(Cl)cc2s1` [Compound 363, 6-Chloro-N-[4-[4-(1H-indol-4-yl)piperazin-1-yl]butyl]benzothiophene-2-sulphonamide] was run?
**A.** -3%

**Q.** What about the activation at 1 µM (dopaminergic D3 receptor; agonist effect, percent of control specific agonist response (300 nM dopamine for control), 1×10^−6 M, D3 (h), CHO cells, read-out: D3-ag [%]) of the same compound?
**A.** 65%

**Q.** And the activation at 1 µM (adrenergic α1A receptor; agonist effect, percent of control specific agonist response, compounds tested at 1×10^−6M, read-out: α1A -ag [%])?
**A.** 0%

**Q.** And the inhibition at 1 µM (adrenergic α1A receptor; read-out: α1A -antag. [%])?
**A.** 100%

**Q.** What about the inhibition at 1 µM [1] of the same compound?
**A.** 98%

**Q.** What about the inhibition at 1 µM [2] of the same compound?
**A.** 98%

**Q.** What about the inhibition at 1 µM [3] of the same compound?
**A.** 32%

**Q.** What about the inhibition at 1 µM (muscarinic M3 receptor) of the same compound?
**A.** 15%

**Q.** What about the activation at 1 µM ([4]; agonist effect, percent of control specific agonist response, compounds tested at 1×10^−6M, read-out: 5-HT7-ag [%]) of the same compound?
**A.** 6%

**Q.** What about the inhibition at 1 µM ([4]; read-out: 5-HT7-antag. [%]) of the same compound?
**A.** 24%

**Q.** What about the “σ [%]” value (sigma σ receptor) of the same compound?
**A.** 96%

**Q.** What about the activation at 1 µM ([5]; read-out: 5-HT2A -ag [%]) of the same compound?
**A.** -1%

**Q.** What about the inhibition at 1 µM ([5]; read-out: 5-HT2A -antag [%]) of the same compound?
**A.** 62%

**Q.** What about the activation at 1 µM (dopaminergic D2 receptor [6]; agonist effect, percent of control specific agonist response (3 μM dopamine for control), 1×10^−6 M, D2S (h), HEK-293 cells, read-out: D2-ag [%]) of the same compound?
**A.** 50%

**Q.** What about the inhibition at 1 µM (dopaminergic D2 receptor [6]; read-out: D2-antag. [%]) of the same compound?
**A.** 94%

**Q.** What about the inhibition at 1 µM (dopaminergic D2 receptor [7]) of the same compound?
**A.** 99%

**Q.** And the inhibition at 1 µM [8]?
**A.** 70%

**Q.** And the “α1 [%]” value (adrenergic α1 receptor)?
**A.** 92%

**Q.** And the inhibition at 1 µM (adrenergic α2C receptor)?
**A.** 101%
